{
  "source": "patent US20050187181A1",
  "about": "(University of Maryland, priority 2004, published 2005)",
  "key": {"[1]": {"tested_on": "rat in endotoxic shock (LPS)", "assay": "Endotoxic shock (LPS 10 mg/kg iv) with intravenous inosine infusion", "format": "in vivo", "protocol": "Pentobarbital-anesthetized (50 mg/kg) rats (380-420 g) had cannulas placed in their femoral artery and vein. Arterial Blood pressure was monitored via the femoral artery cannula. After 15 minutes of stabilization, the rats were injected with 10 mg/kg of lipopolysaccharide (LPS, Sigma Aldrich, serotype 026:B6) in saline via the femoral vein. At the same time, an infusion of saline or inosine (5 mM) in saline or no infusion was begun (5 ml/hr) via the femoral vein cannula. A 5 mM solution of inosine is […]. Arterial pressure and heart rate were monitored throughout the procedure. Survival time was recorded. Supplemental doses (15 mg/kg) of pentobarbital were given via the femoral vein cannula every hour. Rats surviving beyond 8.5 hr had their cannulas removed and were allowed to recover from pentobarbital anesthesia. These rats lived till 48 hours at which time we terminated the experiment. Inosine was administered at a rate of 1.34 mg/ml at 5 ml/hour for 5 hours which is a total of 33.5 mg for 5 hours. In 400 gram rats that is a total of about 83.75 mg/kg over the 5 hour period; 16.75 mg/hr or 402 mg/day."}, "[2]": {"tested_on": "rats in severe hemorrhagic shock", "conditions": "for survival compared to saline and cytidine controls (Kaplan-Meier): single dose of 2.5 mM in saline, 8 rats/group, p<0.001", "experimental": "Pentobarbital-anesthetized rats were subjected to severe hemorrhagic shock. Five groups of eight rats were resuscitated.\nPlasma K^+ was measured from plasma taken before hemorrhage, before resuscitation and 0.5 hrs after resuscitation using a K^+ electrode (Jenco Electronics, Inc., San Diego, Calif.). Survival time between groups was compared by Kaplan-Meier survival Analysis."}, "[3]": {"tested_on": "murine model of colitis (DSS)", "conditions": "cited from earlier work"}, "[4]": {"tested_on": "septic shock induced by cecal ligation and puncture (CLP)", "conditions": "cited from earlier work"}, "[5]": {"tested_on": "lipopolysaccharide-induced shock", "conditions": "cited from earlier work"}, "[6]": {"conditions": "human blood; cited from earlier work"}, "[7]": {"conditions": "water; cited from earlier work"}, "Na/K ATPase": {"tested_on": "Na/K ATPase", "assay": "Na/K ATPase assay (86Rb uptake into red blood cells);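 also: washed human red blood cells in K-free Ringer, test agent preincubated 20 min, then 86Rb uptake over 4 h at 37 °C counted as CPM per tube versus water control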", "experimental": "Human red blood cells of any group-type were donated for research by the Blood Bank of the University Of Maryland, School of Medicine. Five ml of red cells are washed 3 times in 40 ml of Potassium free Ringers solution (141 mM NaCl, 1 mM H2NaPO4, 0.5 mM CaCl2, 1 mM MgSO4, 4.5 mM glucose, 10 mM HEPES pH7.4). 50 μl of washed red cells are added to 220 μl of potassium free Ringers solution. 30, 10, 3 or 1 μl of ultra-filtrate, HPLC (high performance liquid chromatography) fraction, or adenosine, inosine, guanosine, deoxyadenosine, deoxyguanosine, caffeine, aminophylline, dipyridamole, NBTI, 6thioinosine, 6thioguanosine, or EHNA (all in buffer) is added to the mixture and incubated for 20 min. 4 μCi of 86RbCl is added and incubated for 4 hrs at 37° C. The mixture is than washed three times with 4° C. Potassium free Ringers solution and the cells counted in a gamma counter (Packard, Cobra II). Na/K ATPase activity is expressed as the CPM (counts per minute) (CPM/tube*4 hrs). The effects of ultra-filtrate or HPLC fractions on ^86Rb uptake into red cells are compared to equal volumes of either water (control) or, in some cases, 0.01 mM Ouabain (maximal inhibition)."}},
  "note": "Entries after “also recorded” stand apart in the source; their conditions may differ. Like-named read-outs stand apart in the source and are kept apart here.",
  "data": [
    {"smiles": "OC[C@H]1O[C@@H](n2cnc3c(O)ncnc32)[C@H](O)[C@@H]1O", "note": "[inosine]", "values": [
      {"measurement": "survival compared to saline or no-resuscitation groups (Kaplan-Meier)", "setting": "[1]; continuous infusion 5 ml/hr of 5 mM for 5 hrs", "value": "survived significantly longer than the saline or no-resuscitation groups"},
      {"measurement": "survival / success in resuscitating rats fully", "setting": "[1]; iv infusion 5 mM, 5 ml/hr, 5 hours, observed to 48 hours", "value": 100, "unit": "%"},
      {"measurement": "bradycardia on resuscitation from hemorrhagic shock", "setting": "[2]; 2.5 mM in saline", "value": "did not cause the bradycardia"},
      {"measurement": "time to 50% mortality", "setting": "[2]; 2.5 mM in saline", "value": "about 100 minutes"},
      {"measurement": "time to 100% mortality", "setting": "[2]; 2.5 mM in saline", "value": "about 150 minutes"},
      {"measurement": "effect on shock-elevated plasma K^+", "setting": "[2]; 2.5 mM in saline, 0.5 hr", "value": "lowered the shock-elevated plasma K^+"},
      {"measurement": "Plasma K^+ 0.5 hr after Resuscitation", "setting": "[2]; 2.5 mM in saline, mean ± SE, N = 7/group", "value": "2.93 ± 0.21", "unit": "mM"},
      {"measurement": "adverse effects on resuscitation from hemorrhagic shock", "setting": "[2]; rat, in vivo", "value": "without any adverse effects"},
      {"measurement": "survival compared to saline and cytidine controls (Kaplan-Meier)", "setting": "[2]", "value": "survived significantly longer"},
      {"measurement": "survival compared to saline and cytidine controls (Kaplan-Meier)", "setting": "[2]; listed as Inosine", "value": "survived significantly longer than saline or cytidine controls; also recorded: significantly increased survival"},
      {"measurement": "mortality", "setting": "[3]; oral inosine from day one, by day 30", "value": 60, "unit": "%"},
      {"measurement": "protection of colon", "setting": "[3]; oral inosine", "value": "protected the colon from DSS induced inflammatory cell infiltration and lipid peroxidation"},
      {"measurement": "organ damage", "setting": "[4]; 100 mg/kg IP x3", "value": "significantly reduced"},
      {"measurement": "survival", "setting": "[4]; 100 mg/kg IP x3", "value": "significantly improved"},
      {"measurement": "mortality", "setting": "[4]; post-treatment protocol, 100 mg/kg IP x3, at 24 hours", "value": "about 20%"},
      {"measurement": "mortality", "setting": "[4]; post-treatment protocol, at 120 hours", "value": "about 90%"},
      {"measurement": "mortality", "setting": "[4]; post-treatment protocol, by 48 hours", "value": "about 80%"},
      {"measurement": "mortality", "setting": "[4]; pre-treatment protocol, 100 mg/kg IP x3, by 24 hours", "value": 15, "unit": "%"},
      {"measurement": "mortality", "setting": "[4]; pre-treatment protocol, by 48 hours", "value": "about 70%"},
      {"measurement": "mortality", "setting": "[4]; pre-treatment protocol, by 120 hours", "value": "about 75%"},
      {"measurement": "mortality", "setting": "[5]; single IP 100 mg/kg 30 minutes before LPS 70 mg/kg IP, at 36 hours", "value": 19, "unit": "%"},
      {"measurement": "mortality", "setting": "[5]; single IP 100 mg/kg before LPS, at 60 hours", "value": 37.5, "unit": "%"},
      {"measurement": "mortality", "setting": "[5]; single IP 100 mg/kg before LPS, by 96 hours", "value": 50, "unit": "%"},
      {"measurement": "survival compared to untreated mice", "setting": "[5]; single IP 100 mg/kg before LPS", "value": "prolonged survival compared to untreated mice"},
      {"measurement": "half life", "setting": "[6]", "value": "< 1", "unit": "s"},
      {"measurement": "solubility", "setting": "[7]", "value": "highly soluble in water"},
      {"measurement": "relative effectiveness at stimulating Na/K ATPase", "setting": "Na/K ATPase; 10^-3 Molar (FIG. 8)", "value": "both equally effective"},
      {"measurement": "stimulation of Na/K ATPase", "setting": "Na/K ATPase; human red blood cells, dose response (FIG. 3b, FIG. 8)", "value": "stimulated Na/K ATPase in a dose-dependent manner"},
      {"measurement": "stimulation of Na/K ATPase in the presence of ouabain", "setting": "Na/K ATPase; partial inhibition / sub maximal doses of ouabain (FIG. 9)", "value": "overcame partial inhibition by ouabain"}
    ]}
  ]
}
